# Results published in US20250090510A1, “eIF4G1-eIF1 INHIBITORS AND USE THEREOF” (YEDA RESEARCH AND DEVELOPMENT CO. LTD., priority 2022, published 2025).
# Target: T1, eIF4G1 binding to eIF4E-cap complex (Homo sapiens, UniProt Q04637)
# T1 construct: endogenous in cells; host or cells: HEK293T
# Assay: Cap-binding assay on m7GTP cap-analog agarose beads
# Assay type: cell-based
# Settings: HEK293T; i14G1-10 20 μM, i14G1-12 10 μM; 4 hours
# Description: FIGS. 2A-C: The effect of i14G1-10 and i14G1-12 on eIF1-eIF4G1 and eIF4E-eIF4G1 complexes. (2A-B) HA-eIF1 and HA-eIF4E were each transfected into HEK293T cells and 48 h after transfection cells were treated with DMSO or i14G1-10 (2A) or i14G1-12 (2B) for 4 h, followed by immunoprecipitation of HA-eIF1 or HA-eIF4E using anti-HA-agarose beads. Western blot was run to check co-immunoprecipitation of endogenous eIF4G1 with HA-eIF1 or HA-eIF4E. The graphs represent the co-immunoprecipitation of eIF4G1 with HA-eIF1 (right) or HA-eIF4E (left). Co—IP data shown as mean±SEM of 4-7 independent experiments. The asterisks denote statistically significant difference compared to DMSO, according to Student's t-tests (one-tailed, paired). *p<0.05. (2C) HEK293T cells were treated with DMSO, i14G1-10, or i14G1-12 for 4 h, followed by cell lysis. Respective cell lysates were incubated with cap analog (γ-Aminohexyl-m7GTP) beads for 2 h to precipitate bound eIF4E. Western blot was performed to check co-precipitation of eIF4G1 along with eIF4E on the cap-analog beads. The graph represents the binding fraction of eIF4G1 and eIF4E to the cap-analog beads (mean±SEM) with DMSO (black), i14G1-10 (blue), and i14G1-12 (red), n=6. The asterisks denote statistically significant difference compared to DMSO, according to Student's t-tests (one-tailed, paired). *p<0.05; **p<0.01.
# Cap-binding Assay. […]
# T1 sequence (Q04637 whole entry): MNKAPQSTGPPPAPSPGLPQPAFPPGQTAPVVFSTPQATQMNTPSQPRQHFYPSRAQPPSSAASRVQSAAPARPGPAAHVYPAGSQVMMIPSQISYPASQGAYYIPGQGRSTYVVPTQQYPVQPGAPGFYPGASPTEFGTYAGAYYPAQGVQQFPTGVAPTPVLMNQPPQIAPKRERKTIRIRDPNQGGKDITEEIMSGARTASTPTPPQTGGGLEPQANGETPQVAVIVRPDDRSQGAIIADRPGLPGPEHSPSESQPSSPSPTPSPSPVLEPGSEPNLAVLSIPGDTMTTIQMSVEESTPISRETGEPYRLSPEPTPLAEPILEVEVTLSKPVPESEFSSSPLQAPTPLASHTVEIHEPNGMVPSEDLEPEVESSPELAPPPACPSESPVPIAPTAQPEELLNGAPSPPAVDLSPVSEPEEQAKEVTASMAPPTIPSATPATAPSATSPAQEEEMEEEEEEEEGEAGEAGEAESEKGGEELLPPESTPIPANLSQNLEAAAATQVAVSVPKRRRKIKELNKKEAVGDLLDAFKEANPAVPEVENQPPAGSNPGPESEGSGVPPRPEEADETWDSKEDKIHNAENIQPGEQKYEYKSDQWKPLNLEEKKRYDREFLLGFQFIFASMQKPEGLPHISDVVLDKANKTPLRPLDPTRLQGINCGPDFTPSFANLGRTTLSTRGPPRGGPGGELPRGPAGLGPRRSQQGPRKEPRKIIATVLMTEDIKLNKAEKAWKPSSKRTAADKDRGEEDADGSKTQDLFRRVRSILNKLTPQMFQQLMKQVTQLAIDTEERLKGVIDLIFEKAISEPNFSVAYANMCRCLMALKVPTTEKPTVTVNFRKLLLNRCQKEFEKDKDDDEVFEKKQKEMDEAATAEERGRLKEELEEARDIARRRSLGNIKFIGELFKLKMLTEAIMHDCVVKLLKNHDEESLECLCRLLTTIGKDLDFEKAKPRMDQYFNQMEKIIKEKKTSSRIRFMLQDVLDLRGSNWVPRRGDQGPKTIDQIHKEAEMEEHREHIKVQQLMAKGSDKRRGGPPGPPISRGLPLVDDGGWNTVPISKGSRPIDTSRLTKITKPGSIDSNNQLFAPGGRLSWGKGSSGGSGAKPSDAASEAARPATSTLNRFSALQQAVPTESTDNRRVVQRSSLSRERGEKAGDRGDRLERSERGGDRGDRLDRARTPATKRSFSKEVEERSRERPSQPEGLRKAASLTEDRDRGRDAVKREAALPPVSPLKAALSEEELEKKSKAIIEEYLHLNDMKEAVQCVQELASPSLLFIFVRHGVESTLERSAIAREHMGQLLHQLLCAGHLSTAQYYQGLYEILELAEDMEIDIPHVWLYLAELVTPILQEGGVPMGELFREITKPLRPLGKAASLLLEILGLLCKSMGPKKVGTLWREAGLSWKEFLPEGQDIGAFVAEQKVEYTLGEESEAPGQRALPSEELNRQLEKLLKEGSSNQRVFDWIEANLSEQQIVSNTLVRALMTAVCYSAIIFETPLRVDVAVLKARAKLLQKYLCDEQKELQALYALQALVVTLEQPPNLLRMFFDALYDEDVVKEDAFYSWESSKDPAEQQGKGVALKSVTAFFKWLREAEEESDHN
# T1 sequence (P06730 2-217 partner limits assumed): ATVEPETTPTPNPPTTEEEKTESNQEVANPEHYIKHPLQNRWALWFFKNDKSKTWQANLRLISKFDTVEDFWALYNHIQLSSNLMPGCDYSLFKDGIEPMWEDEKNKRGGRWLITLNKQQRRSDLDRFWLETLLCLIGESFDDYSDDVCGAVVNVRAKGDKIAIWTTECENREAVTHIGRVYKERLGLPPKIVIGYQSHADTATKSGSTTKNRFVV
row,Compound,enhancement of eIF4G1 binding to eIF4E-cap complex
1,O=C(/C=C/Sc1ccc(C(F)(F)F)cn1)c1ccccc1 [i14G1-10],1.8 folds
2,Cn1ccnc1S/C(=C/C=C(C#N)C#N)c1ccc(Cl)cc1 [i14G1-12],no significant effect
